Reference: US20240175029A1, “RNA INHIBITOR FOR INHIBITING HEPATITIS B VIRUS GENE EXPRESSION AND APPLICATION THEREOF” (priority 2021, published 2024)

Legend:
[1] = tested on: HBV HBsAg; assay: Comparison and combined use of Ky-2208 and tenofovir (TDF) in HBV transgenic (HBV-Tg) mice, HBsAg; assay type: in vivo; details: Ky-2208 3 or 9 mpk sc single, TDF 15 mpk po daily, d7-d28
Protocol: Experimental procedures: 48 HBV-Tg male mice with a body weight of 25-35 g and a week age of 8-13 w, were raised in an animal room that meets the SPF standard, with a temperature of 16-26° C., a humidity of 40-70% and circulating light (12 hours in light and dark respectively), and were free to eat and drink water. The solvent for formulation of the compound was normal saline, and the concentration of the working solution was 0.75 mg/mL. […] The experiment consisted of 6 groups, including one control group ([…]) and 5 administration groups. The drug was administered once on the day of d0, and mice in each group were subcutaneously injected with 0.04 mL/10 g of the corresponding test solution on d0. Whole blood was collected through the orbital venous plexus of mice on d0 before administration and d7, d14, d21 and d28 after administration, and centrifuged at 3000×g for 5 minutes. Supernatant was sampled on d0, d7, d14, d21 and d28 to detect HBV HBsAg.

[2] = tested on: HBsAg; assay: Ky-22 combined with entecavir or interferon in HepG2.2.15 cells, HBsAg; assay type: cell-based, HBV; details: 72 hours, ETV 0.1-10 μM, IFN-α 10-1000 IU/mL, Ky-22 0.125 μg/mL
Protocol: (§1) The experiment was conducted in the widely used HepG2.2.15 cell line to evaluate the inhibitory effect of the RNA inhibitor of the present invention in combination with different concentrations of entecavir (ETV) or interferon (IFN-a) on HBV.
(§2) Experimental procedures: DMEM medium containing 10% fetal bovine serum was prepared. Media containing 10 nM RNA inhibitor Ky-22 was prepared from a culture medium. HepG2.2.15 cells were inoculated at a cell density of […] and cultured in the DMEM medium with 10% fetal bovine serum at 37° C. under 5% CO2 for 24 hours, added with the drug for intervention, and incubated for 72 hours. The supernatant was sampled to detect HBsAg, HBeAg and HBV DNA. The relative percentages of HBsAg, HBeAg, and HBV DNA in the sample intervention groups were calibrated by compared with the supernatant of HepG2.2.15 cells without intervention.

[3] = tested on: HBeAg; assay: Ky-22 combined with entecavir or interferon in HepG2.2.15 cells, HBeAg; assay type: cell-based, HBV; details: 72 hours, ETV 0.1-10 μM, IFN-α 10-1000 IU/mL, Ky-22 0.125 μg/mL
Protocol: as §1, §2

Row | Compound | reduction of HBsAg level [1] | inhibitory effect on HBsAg [2] | inhibitory effect on HBeAg [3]
1 | CC(C)OC(=O)OCOP(=O)(CO[C@H](C)Cn1cnc2c(N)ncnc21)OCOC(=O)OC(C)C.O=C(O)/C=C/C(=O)O [TDF, Tenofovir] | no inhibitory effect | – | –
2 | C=C1[C@H](CO)[C@@H](O)C[C@@H]1n1cnc2c(=O)[nH]c(N)nc21 [entecavir] | – | no significant inhibitory effect | no significant inhibitory effect
3 | C[C@H](Cn1cnc2c(N)ncnc21)OCP(=O)(O)O [tenofovir (TDF), tenofovir] | does not have the efficacy of reducing HBsAg level | – | –
